Columns and labels:
[1] = Emulsion stability test (modified, xylene/water); format: physicochemical; conditions: 0.5g surfactant, 90 mL deionized water, 5.0 mL xylene; second rocking sequence
Procedure: In order to obtain reproducible results, an emulsion stability test, modified from the standard used in the art for testing surfactants was developed. In the modified procedure, 0.5g of a select surfactant (instead of 1g) was dissolved in 90 mL of deionized water in a graduated cylinder containing 5.0 mL of xylene, which was then sealed and rocked between a vertical/horizontal position for 30 cycles, allowed to settle for about 5 to 10 minutes and subjected to the same rocking cycle with the results of the second sequence recorded (instead of the first sequence).

[2] = Crude oil emulsification/dispersion and pH reversibility; format: physicochemical
Procedure: Sodium N-dodecylphthalamate, sodium N-cocophthalamate, sodium N-isodecyloxypropylphthalamate and sodium N-isododecyloxypropylphthalamate, along with a control (tap water only), were evaluated as emulsifying and/or dispersing and/or suspending agents for a given, heavy (viscous) crude petroleum oil (Dome crude oil, David Field, California) in different water samples, one having a hardness (expressed as CaCO₃) of 150 ppm, another having a hardness of 500 ppm, along with a synthetic sea water (NaCl-containing tap water, 150 ppm). In addition, various admixtures of sodium N-dodecylphthalamate and lauryl amine oxide were similarly evaluated with the above petroleum crude oil and synthetic sea water for synergistic emulsification characteristics.
The respective surfactants were prepared as aqueous solutions with the various water samples at a concentration of about 0.1 percent actives. Measured samples (50 mL) of the surfactant solutions were placed in 100 mL graduated cylinders, 2 drops of the crude oil added, the cylinders stoppered and relatively vigorously shaken manually for about 10 to 20 seconds. The degree of emulsification/dispersion, suspension was noted and recorded The data is set for in Table VIII below.
At relatively high pH values (i.e., above about 7) emulsification of the crude oil readily occurred and at relatively how pH values (i.e., below about 5) de-emulsification of the crude oil readily occurred. A control was prepared from a sample of the 150 ppm hardness water without surfactant but with 2 drops of the above crude oil.
The foregoing cycle between relatively high pH and relatively low pH was repeated an additional three times, with essentially identical emulsification/de-emulsification results. During a low (4.9) pH de-emulsification cycle, separated crude oil was removed, by decantation and a pH of the remaining (used) phthalamic solution was adjusted to about 13.5 and fresh crude oil added. […] Upon addition of additional fresh sodium N-dodecylphthalamate, the emulsion re-formed.

[3] = Bleach (chlorine ion) stability; format: physicochemical; conditions: for formulation clarity / foaming characteristics: 2.0% actives surfactant, 4.0% actives NaOCl; for formulation clarity: 1.0% NaOH, 90°C water bath about 5 hours; for foaming characteristics: after about 5 hours at 90°C
Source text: Select N-alkyl and N,N-dialkyl phthalamates were incorporated into a standard test formulation containing a common bleach. […] The standard formulation comprised 4.0% actives of NaOCl; 0.25% actives NaCl; 1.0% actives NaOH (50%); 2.0% actives surfactant and Q.S. 100% deionized water. 1. DOWFAX^R-2A1 is Dow Chemical Company's registered trademark for sodium branched C₁₂ diphenyloxide disulfonate. 2. MAKON^R- 10 is Stepan Company's registered trademark for a nonylphenol polyethoxylate.
The various formulations were individually placed in tightly capped jars and subjected to a 90°C water bath for about 5 hours and then observed for formulation clarity and foaming characteristics. Each sample was run in duplicate.

[4] = Thermal stability followed by IR spectroscopy; format: physicochemical; conditions: for Conversion to the N-dodecylphthalimide: neat (100% actives), about 100°C
Procedure: Thermal stability studies were conducted with neat (100% actives) sample of ammonium N-dodecylphthalamate mulled on sodium chloride plates. […]

[5] = Solubility in various solvents (vehicles); format: physicochemical; parameters: key: I - INSOLUBLE; S - SOLUBLE; conditions: 1% actives
Procedure: (§1) Sodium N-octadecylphthalamate, 1% actives, was evaluated for solubility in various solvents and under cold storage (4°C) and freeze-thaw conditions.

[6] = Cold storage and freeze-thaw stability of solutions; format: physicochemical; parameters: key: P - PASS; conditions: 1% actives; for STABILITY FREEZE THAW: 3 freezing/thawing cycles; for STABILITY COLD STORAGE: 24 hours at 4 °C
Procedure: as §1

[7] = Emulsification in foodstuffs; conditions: about 1% by weight, substituted for egg yolk
Procedure: Sodium N-octadecylphthalamate was added to a standard cup-cake recipe at actives levels of 0% (control), 1%, 2%, 3%, 4%, and 5%. The N-octadecylphthalamate was admixed into a typical batter as a partial replacement for the shortening, margarine or butter called for in the recipe, baked at a uniform temperature (about 176°C) and time (about 25 minutes). […] A mayonnaise formulation containing about 1% by weight, based on a 100% total weight of formulation, of sodium N-octadecylphthalamate was prepared, with the N-octadecylphthalamate being substituted for egg yolk in a given recipe. […] A dog food was prepared by admixing about 200g of "Generic" beef-flavored dog food with 3g of 100% actives sodium N-octadecylphthalamate. Samples of this dog food were exposed to various temperatures (i.e., 0°C, 43°C and 50°C).

[8] = Caustic stability (reflux with NaOH); format: physicochemical; conditions: for ES*(mL/sec) (Emulsion Stability): reflux with an equivalent of NaOH
Procedure: In order to determine caustic stability of the phthalamates, 5g of octylphthalamic acid was dissolved in 450 mL of water containing an equivalent of NaOH. This mixture was heated at reflux for about 24 hours and five separate 90mL samples were withdrawn at 0 hours, 1 hour, 2 hours, 16.5 hours and 23.7 hours. The resulting individual samples were acidified and the sodium N-octylphthalamic acid was isolated and analyzed (filtered, dried, weighted and m.p. and neutralization equivalents were obtained).

[9] = Particulate material suspension; format: physicochemical
Procedure: In this test, potassium N-octadecylphthalamate was utilized as a suspending agent in a typical shampoo base with known particulate anti-dandruff materials, zinc pyrithione and coal tar. Particulate (about 500 mesh) zinc pyrithione and particulate (about 350 to 400 mesh) coal tar were suspended in shampoo base formulations and stored at room temperature, at about 1.6°C and at about 43.3°C.
About 2 percent potassium octadecylphthalamate was incorporated with about 50 to 70 percent particulate coal (average size about 200 mesh) and about 30 to 50 percent water at ambient temperature.

Draves Wetting test = format: physicochemical; conditions: tap water; active level of 0.1%
Source text: (§2) Standard Ross-Miles Foaming and Draves Wetting tests were preformed on various fatty phthalamates with the results set forth in Table 1 below. In all tests, an active level of 0.1% was utilized.

Ross-Miles Foaming test = format: physicochemical; conditions: tap water; active level of 0.1%
Source text: as §2

[10] = 0.1% actives in 50 mL of 150 ppm hardness water

CCCCCCCCCCNC(=O)c1ccccc1C(=O)[O-].[Na+] [Sodium N-decylphthalamate]
Emulsion Break Rate [1]: 0.034 mL/s

CCCCCCCCCCCCNC(=O)c1ccccc1C(=O)[O-].[Na+] [Sodium N-dodecylphthalamate, Sodium N-Dodecylphthalamate]
pH values at which de-emulsification of the crude oil readily occurred [2, 10]: below 5
pH values at which emulsification of the crude oil readily occurred [2, 10]: above 7
emulsification of crude oil ([2]; 0.1% actives, 150 ppm hardness water, pH of 8.5): the oil readily emulsified
emulsification of crude oil ([2]; pH dropped to about 3.5): the emulsion broke
emulsification of crude oil ([2]; pH dropped to about 5.2): a slight flocculation noted
emulsification of crude oil ([2]; pH dropped to about 7.0): without noticeable de-emulsification
emulsification of crude oil ([2]; pH dropped with 1N HCl to about 2.6): the emulsion broke, almost instantly, with floccing
emulsification of crude oil ([2]; pH raised with 1N NaOH to about 13.4): an emulsified solution was noted
emulsification of crude oil ([2]; used solution, pH about 13.5, fresh crude oil added): very stabile emulsion was quickly formed
formulation clarity [3]: initially clear yellow but became cloudy and exhibited phase separation
thermal stability ([4]; 120°C): stabile
Emulsion Break Rate [1]: 0.068 mL/s

CCCCCCCCCCCCCCCCNC(=O)c1ccccc1C(=O)[O-].[Na+] [Sodium N-hexadecylphthalamate]
Emulsion Break Rate [1]: 0.102 mL/s

CCCCCCCCCCCCCCCCCCNC(=O)c1ccccc1C(=O)[O-].[Na+] [Sodium N-octadecylphthalamate, Sodium N-Octadecylphthalamate]
APPEARANCE 24 HOURS @ RT^0 AFTER HEAT ([5]; vehicle AMMONYX^R LO): S
APPEARANCE 25^0C ([5]; vehicle AMMONYX^R LO): S
APPEARANCE 50^0C ([5]; vehicle AMMONYX^R LO): S
APPEARANCE 24 HOURS @ RT^0 AFTER HEAT ([5]; vehicle AMPHOSOL^R): S
APPEARANCE 25^0C ([5]; vehicle AMPHOSOL^R): I
APPEARANCE 50^0C ([5]; vehicle AMPHOSOL^R): S
APPEARANCE 24 HOURS @ RT^0 AFTER HEAT ([5]; vehicle MAKON^R 10): S
APPEARANCE 25^0C ([5]; vehicle MAKON^R 10): I
APPEARANCE 50^0C ([5]; vehicle MAKON^R 10): I
APPEARANCE 24 HOURS @ RT^0 AFTER HEAT ([5]; vehicle NINOL^R 40-CO): S
APPEARANCE 25^0C ([5]; vehicle NINOL^R 40-CO): I
APPEARANCE 50^0C ([5]; vehicle NINOL^R 40-CO): S
APPEARANCE 24 HOURS @ RT^0 AFTER HEAT ([5]; vehicle STEPANATE^R): I
APPEARANCE 25^0C ([5]; vehicle STEPANATE^R): I
APPEARANCE 50^0C ([5]; vehicle STEPANATE^R): I
STABILITY FREEZE THAW ([6]; vehicle AMMONYX^R LO): P
STABILITY COLD STORAGE ([6]; vehicle AMMONYX^R LO): P
STABILITY FREEZE THAW ([6]; vehicle AMPHOSOL^R): P
STABILITY COLD STORAGE ([6]; vehicle AMPHOSOL^R): P
STABILITY FREEZE THAW ([6]; vehicle MAKON^R 10): P
STABILITY COLD STORAGE ([6]; vehicle MAKON^R 10): P
STABILITY FREEZE THAW ([6]; vehicle NINOL^R 40-CO): P
STABILITY COLD STORAGE ([6]; vehicle NINOL^R 40-CO): P
imidation ([4]; 3.5 hours at 150°C): only a very small degree of imidation
imidation ([4]; 64 hours at 150°C): significant formation of N-octadecylphthalimide
mayonnaise emulsion stability [7]: excellent stability

CCCCCCCCNC(=O)c1ccccc1C(=O)[O-].[Na+] [Sodium N-octylphthalamate]
pH at which stable ([8]; caustic environment, reflux about 24 hours): at least 10
ES*(mL/sec) (Emulsion Stability) ([8]; sample at 0 hr): 0.0252 mL/s
ES*(mL/sec) (Emulsion Stability) ([8]; sample at 1 hr): 0.0325 mL/s
ES*(mL/sec) (Emulsion Stability) ([8]; sample at 2 hr): 0.0400 mL/s
ES*(mL/sec) (Emulsion Stability) ([8]; sample at 16.5 hr): 0.0690 mL/s
ES*(mL/sec) (Emulsion Stability) ([8]; sample at 23.7 hr): 0.108 mL/s
Emulsion Break Rate [1]: 0.111 mL/s

CCCCCCCCCCCCCCNC(=O)c1ccccc1C(=O)[O-].[Na+] [Sodium N-tetradecylphthalamate]
Emulsion Break Rate [1]: 0.085 mL/s

CCCCCCCCCCNC(=O)c1ccccc1C(=O)O.OCCN(CCO)CCO [Triethanolammonium N-decylphthalamate]
Emulsion Break Rate [1]: 0.046 mL/s

CCCCCCCCCCCCNC(=O)c1ccccc1C(=O)O.OCCN(CCO)CCO [Triethanolammonium N-dodeylphthalamate]
Emulsion Break Rate [1]: 0.039 mL/s

CCCCCCCCNC(=O)c1ccccc1C(=O)O.OCCN(CCO)CCO [Triethanolammonium N-octylphthalamate]
Emulsion Break Rate [1]: 0.043 mL/s

CCCCCCCCCCCCNC(=O)c1ccccc1C(=O)O.N [ammonium N-dodecylphthalamate, Ammonium N-Dodecylphthalamate]
Conversion to the N-dodecylphthalimide ([4]; 10 minutes): very apparent
Conversion to the N-dodecylphthalimide ([4]; 20 minutes): almost total conversion

CCCCCCCCCCCCCCCCCCNC(=O)c1ccccc1C(=O)[O-].[K+] [potassium N-octadecylphthalamate]
suspension of particulate coal in water ([9]; about 2 percent with about 50 to 70 percent coal (about 200 mesh), ambient temperature): free flowing, substantially homogeneous suspension
stability of zinc pyrithione suspension in shampoo base ([9]; after 5 days at 43.3°C): phase separation
stability of coal tar suspension in shampoo base ([9]; after 5 days at room temperature, at 1.6°C and at 43.3°C): excellent stability

CCCCCCCCCCCCN(C)C(=O)c1ccccc1C(=O)[O-].[Na+] [sodium N-methyl-N-dodecylphthalamate, Sodium N-Dodecyl-N-methylphthalamate]
formulation clarity [3]: clear yellow throughout the test
foaming characteristics [3]: unstabile
bleach stability ([3]; conclusion from the 90°C bleach test): good bleach stability

CC(C)CCCCCCCCCOCCCNC(=O)c1ccccc1C(=O)[O-].[Na+] [sodium isododecyloxypropylphthalamate, Sodium N-Isododecyloxypropylphthalamate]
wetting time (Draves Wetting test): 4.5 s
foam height (Ross-Miles Foaming test): 5.5 cm

sodium N,N-dicocophthalamate
formulation clarity [3]: poor solubility, with phase separation
foaming characteristics [3]: no pre-bath or post-bath foam
